{
  "source": "patent US4923882A",
  "about": "“Novel amine derivatives, salts thereof and an anti-ulcer agent containing the same” (Toyama Chemical Co., Ltd., priority 1982, dated 1990)",
  "key": {"[1]": {"system": "Reserpine ulcer", "assay": "Anti-ulcer activity: Reserpine ulcer", "assay_type": "in vivo, Wistar strain rats", "settings": "100 mg/kg, oral", "protocol": "An experiment was carried out according to the method of Adami et al. [E. Adami et al., Arch. int.\nTen Wistar strain rats (male, 180 to 200 g) per group were starved for 30 hours, after which each drug was orally administered, and after 1 hour, reserpine was injected subcutaneously at a dose of 10 mg/kg. After 18 hours, the stomach was removed and fixed with 3% formalin, and thereafter the lengths of the ulcers formed in the stomach were measured with callipers. The measured values were converted to the scores described below, and the sum total of the scores was taken as the ulcer index.\nThat is to say, 1 to 5 pin point ulcers are scored as 1, 6 or more pin point ulcers are scored as 2, ulcers of 1 mm or less in length are scored as 1, ulcers of 1 to 2 mm in length are scored as 2, ulcers of 2 to 4 mm in length are scored as 4, and ulcers of 4 mm or more in length are scored as 8.\n(§1) To a control group was administered 0.5% Tween 80 physiological saline. The inhibition percentage was determined from the following equation: [formula]"}, "[2]": {"system": "gastric acid secretion", "assay": "Inhibitory effect on gastric acid secretion, perfused stomach preparation of anesthetized rat (histamine stimulated)", "assay_type": "in vivo, Wistar strain rats", "settings": "time from complete inhibition until pH of perfusate became 4; intravenous", "summary_of_the_method": "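Urethane-anesthetized, 18 h-fasted male Wistar rats (200 to 250 g); stomach perfused at 1 ml/min with saline at pH about 10, with perfusate pH recorded continuously under iv histamine 30 μg/kg/min. Drug given iv cumulatively once secretion steady (pH 3.3±0.2), each dose after a plateau; n=3 per dose.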"}, "[3]": {"system": "Indomethacin ulcer", "assay": "Anti-ulcer activity: Indomethacin ulcer", "assay_type": "in vivo, Wistar strain rats", "settings": "Rattus norvegicus, po", "protocol": "Six Wistar strain rats (male, 200 to 250 g) per group were starved for 24 hours, after which each drug was orally administered, and after 30 minutes, Indomethacin was injected subcutaneously at a dose of 30 mg/kg. After 5 hours, each rat was killed, and the stomach was removed and fixed with 3% formalin, after which the lengths of ulcers formed in the stomach was measured under the binocular stereoscopic microscope (10×), and the sum total of the lengths was taken as the ulcer index. To a control group was administered 0.5% Tween 80 physiological saline. The inhibition percentage was determined from the following equation: [formula]"}, "[4]": {"system": "isolated guinea pig atrium", "assay": "Effect on isolated guinea pig atrium (histamine-induced heart rate)", "design": "species or system Hartley guinea pig", "protocol": "Hartley guinea pig (male, 300 to 400 g) was killed by blood-letting, immediately after which the heart was isolated, and the right atrium was separated in a Krebs-Henseleit solution and used as a preparation. […] The preparation was trained in a bath fluid, and after the heart rate became constant, 5×10^-6 M of histamine was administered. After the heart rate became constant, each drug was administered cumulatively.\nThe inhibition percentage was determined from the following equation: [formula] HRmin : heart rate before the administration of histamine HRmax : heart rate after the administration of histamine\nHRx : heart rate at the time of the administration of each drug.\nThe number of experiments were five for each dose."}, "[5]": {"system": "gastric acid secretion", "assay": "Inhibitory effect on gastric acid secretion, pylorus ligation method (histamine)", "assay_type": "in vivo, Wistar strain rats", "settings": "Rattus norvegicus, po, read-out: Inhibition percentage (gastric acid secretion)", "summary_of_the_method": "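Male Wistar rats (190–230 g, 5–6/group) fasted 35 h, dosed orally; pylorus ligated under ether 2 h later. Stomach removed after 3 h, gastric juice volume measured and acidity titrated with 0.1N NaOH to pH 7.0. Percent inhibition calculated against saline controls.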"}, "[6]": {"system": "Stress ulcer induced by water-immersion", "assay": "Anti-ulcer activity: Stress ulcer induced by water-immersion", "assay_type": "in vivo, Wistar rats", "settings": "for Inhibition percentage: oral", "protocol": "(iii) Stress ulcer induced by water-immersion\nAn experiment was carried out according to the method of Takagi et al. [K. Takagi et al., Jap.\nSix Wistar rats (male, 230 to 280 g) per group were starved for 24 hours, after which each drug was orally administered. After 30 minutes, the rats were placed in stress cage, immersed in water at 23° C. to the depth of xiphoid, and allowed to stand therein for 15 hours. Thereafter, the stomach of each rat was removed and then fixed with 3% formalin, after which the areas of the ulcers formed were measured under the binocular stereoscopic microscope (10×), and the sum total of the areas was taken as the ulcer index. To a control group was administered 0.5% Tween 80 physiological saline.\nThe inhibition percentage was determined from the following equation: [formula]"}, "[7]": {"system": "Mepirizole-induced duodenal ulcer", "assay": "Anti-ulcer activity: Mepirizole-induced duodenal ulcer", "assay_type": "in vivo, Wistar strain rats", "settings": "for Inhibition percentage / rats died: oral; for rats died: in mepirizole test", "protocol": "(ii) Mepirizole-induced duodenal ulcer\nA test was carried out according to the method of Okabe et al. [S. Okabe et al., Gastrcenterology, 80, 1241 (1981)].\nSix Wistar strain rats (male, 200 to 250 g) per group were starved for 24 hours, after which each drug was orally administered, and after 30 minutes, mepirizole was injected subcutaneously at a dose of 200 mg/kg. After 18 hours, the stomach and duodenum were removed and fixed with 3% formalin, after which the areas and depths of the ulcers formed in the duodenum were measured under the binocular stereoscopic microscope (10×). The scores were given in 7 grades depending on the areas and depths of the ulcers, and the sum total of the scores was taken as the ulcer index. The scores were given as follows:\nThat is to say, the score is 0 at an ulcer area of 0 to 0.2 mm^2, 1 at 0.2 to 1.0 mm^2, 2 at 1 to 3 mm^2, 3 at 3 to 6 mm^2, 4 at 6 to 10 mm^2,5 at 10 mm^2 or more, the ulcer in the condition immediately before perforation is scored as 6, and the ulcer which had caused perforation is scored as 7.\nas §1"}, "[8]": {"settings": "read-out: Inhibition percentage"}},
  "data": [
    {"smiles": "CN/C(=N/CCSCc1nc[nH]c1C)NC#N", "note": "[Cimetidine, reference compound]", "values": [
      {"measurement": "Inhibition percentage", "setting": "[1]", "value": 9.7, "unit": "%"},
      {"measurement": "Duration", "setting": "[2]", "value": 16, "unit": "min"},
      {"measurement": "ED50", "setting": "[3]; 5 h, read-out: ID50", "value": 27.5, "unit": "mg/kg"},
      {"measurement": "inhibition in vivo at 10 mg/kg", "setting": "[3]; [8]", "value": 18, "unit": "%"},
      {"measurement": "inhibition in vivo at 30 mg/kg", "setting": "[3]; [8]", "value": 50, "unit": "%"},
      {"measurement": "inhibition in vivo at 100 mg/kg", "setting": "[3]; [8]", "value": 97, "unit": "%"},
      {"measurement": "Potency ratio", "setting": "[4]; Cimetidine = 1", "value": 1},
      {"measurement": "IC50", "setting": "[4]; right atrium, 5×10^-6 M histamine, 30° C., read-out: ID50 (the source's name)", "value": 3.35, "unit": "µM"},
      {"measurement": "inhibition in vivo at 10 mg/kg", "setting": "[5]", "value": 39, "unit": "%"},
      {"measurement": "inhibition in vivo at 30 mg/kg", "setting": "[5]", "value": 60, "unit": "%"},
      {"measurement": "inhibition in vivo at 90 mg/kg", "setting": "[5]", "value": 97, "unit": "%"},
      {"measurement": "Inhibition percentage", "setting": "[6]; 10 mg/kg", "value": 22, "unit": "%"},
      {"measurement": "Inhibition percentage", "setting": "[6]; 30 mg/kg", "value": 94, "unit": "%"},
      {"measurement": "ED50", "setting": "[6]; Rattus norvegicus, po, 15 h, read-out: ID50", "value": 15.5, "unit": "mg/kg"},
      {"measurement": "Inhibition percentage", "setting": "[7]; 100 mg/kg", "value": 43, "unit": "%"},
      {"measurement": "rats died", "setting": "[7]; 100 mg/kg", "value": "Two of six rats died"},
      {"measurement": "Inhibition percentage", "setting": "[7]; 300 mg/kg", "value": 59, "unit": "%"},
      {"measurement": "rats died", "setting": "[7]; 300 mg/kg", "value": "Four of six rats died"},
      {"measurement": "ED50", "setting": "[7]; Rattus norvegicus, po, 18 h, read-out: ID50", "value": 162, "unit": "mg/kg"}
    ]}
  ]
}
